Some results are limits rather than exact numbers.

JMJD2C, sequence (Q9H3R0 2-372): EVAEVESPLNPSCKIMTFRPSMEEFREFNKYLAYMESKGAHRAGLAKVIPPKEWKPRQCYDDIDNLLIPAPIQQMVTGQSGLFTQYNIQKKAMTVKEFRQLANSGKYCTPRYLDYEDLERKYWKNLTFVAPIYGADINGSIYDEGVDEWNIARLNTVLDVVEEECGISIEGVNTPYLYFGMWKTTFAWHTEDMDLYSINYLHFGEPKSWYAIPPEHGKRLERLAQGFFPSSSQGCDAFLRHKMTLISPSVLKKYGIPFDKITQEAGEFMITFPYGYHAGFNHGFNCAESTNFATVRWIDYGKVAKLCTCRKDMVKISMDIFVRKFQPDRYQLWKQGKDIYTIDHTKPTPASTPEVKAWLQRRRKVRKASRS

The assay addresses JMJD2C (Homo sapiens (Human), UniProt Q9H3R0). Nature of the assay: JMJD2C TR-FRET in vitro enzyme inhibition assay. The assay is classed as biochemical. The conditions noted are these: 0.3 nM JMJD2C, H3K9me3 peptide, read-out: JMJ-D2C IC50. (Time-resolved FRET reads energy transfer from a long-lived donor to a nearby acceptor.)
Text: This assay determines the ability of a test compound to inhibit Jarid1A, Jarid1B, and JMJD2C demethylase activity. Baculovirus expressed Jarid1A (GenBank Accession #NM_001042603, AA1-1090) was purchased from BPS Bioscience (Cat #50110). Baculovirus expressed Jarid1B (GenBank Accession #NM_006618, AA 2-751) was purchased from BPS Bioscience (Cat #50121) or custom made by MolecularThroughput. Baculovirus-expressed JMJD2C (GenBank Accession #BC143571, AA 2-372) was purchased from BPS Bioscience (Cat #50105).
The ability of test compounds to inhibit the activity of JMJD2C was determined in 384-well plate format under the following reaction conditions: 0.3 nM JMJD2C, 300 nM H3K9me3-biotin labeled peptide (Anaspec cat #64360), 2 μM alpha-ketoglutaric acid in assay buffer of 50 mM HEPES, pH7.3, 0.005% Brij35, 0.5 mM TCEP, 0.2 mg/ml BSA, 50 μM sodium L-ascorbate, and 2 μM ammonium iron(II) sulfate. Reaction product was determined quantitatively by TR-FRET after the addition of detection reagent Phycolink Streptavidin-allophycocyanin (Prozyme) and Europium-anti-di-methylated histone H3 lysine 9 (H3K9me2) antibody (PerkinElmer) in the presence of 5 mM EDTA in LANCE detection buffer (PerkinElmer) at a final concentration of 50 nM and 1 nM, respectively.
The assay reaction was initiated by the following: 2 μl of the mixture of 900 nM H3K9me3-biotin labeled peptide and 6 μM alpha-ketoglutaric acid with 2 μl of 11-point serial diluted inhibitor in 3% DMSO were added to each well of the plate, followed by the addition of 2 μl of 0.9 nM JMJD2C to initiate the reaction. The reaction mixture was incubated at room temperature for 30 min, and terminated by the addition of 6 μl of 5 mM EDTA in LANCE detection buffer containing 100 nM Phycolink Streptavidin-allophycocyanin and 2 nM Europium-anti-H3K9me2 antibody. Plates were read by EnVisionMultilabel Reader in TR-FRET mode (excitation at 320 nm, emission at 615 nm and 665 nm) after 1 hr incubation at rt. A ratio was calculated (665/615) for each well and fitted to determine inhibition constant (IC50).
“3-{[(6-chloro-1,2,3,4-tetra- hydronaphthalen-1-yl)methyl]- amino}pyridine-4-carboxylic acid [Example 68]”: the IC50 (in general, the concentration that inhibits the measured activity by half) was in the range of 100 to 1000 nM.

Regarding “3-{[(6-chloro-1-hydroxy- 1,2,3,4-tetrahydronaphthalen- 1-yl)methyl]amino}pyridine- 4-carboxylic acid [Example 67]”, the IC50 fell in the range of 100 to 1000 nM.

Turning to `O=C(O)c1ccncc1NCC1CCOc2cc(F)ccc21` (stereo not drawn) [Example 65, 3-{[(7-fluoro-3,4-dihydro-2H-chromen-4-yl)methyl]amino}-pyridine-4-carhoxylic acid], the IC50 is ≤ 100 nM.

The values above are taken from patent US11214542B2, “Histone demethylase inhibitors” (CELGENE QUANTICEL RESEARCH, INC., priority 2012, dated 2022).
